Where two headings read alike, the source gives them in different places.
Experiments:
[1] = Radio-stability in physiological buffer by radioHPLC; format: physicochemical
Method: Mito10-MAG3 was radiolabeled with ^99mTc, using a protocol previously reported with minor modifications. Specifically, an aliquot of Mito10-MAG3 (30 μg) was re-suspended in 450 μl of freshly prepared labeling solution containing 7.5 mg tartaric acid, 9.5 mg ammonium acetate, 10 μg stannous chloride, pH 8.3. After the addition of ^99mTc pertechnetate (3 mCi), the labeling mixture was incubated at 65° C. for one hour. For quality control purposes, the radiolabeled product was routinely analyzed by radioHPLC (4.6×250 mm C18 reversed phase column) at room temperature, with the following method.
Buffer A contained 10 mM phosphate buffer (pH 6.8) and buffer B contained 100% acetonitrile. A baseline of 90% A and 10% B was run for 10 min, followed by a linear gradient with the mobile phase reaching 10% A and 90% B at 40 min. To determine the radio-stability, the radiopharmaceutical was maintained in physiological buffer for up to 48 hours, and the radiochemical purity was examined by radioHPLC.

[2] = for Radioactivity Uptake, Bone: Bone (non-organ); for Radioactivity Uptake, Fat: Fat (non-organ); for Radioactivity Uptake, Muscle: Muscle (non-organ); for Radioactivity Uptake, Urine: Urine (non-organ)
Method: Rats (n=3) were sacrificed at 1, 3, 5, 10, 30 and 60 min after injection and the distribution of radioactivity in different tissues was determined by gamma well counting with an energy window of 140±15 keV. The biodistribution data is expressed in terms of percentage injected dosage per gram (% ID/g) with mean±standard deviation. Urine samples were collected from the bladder at 30 min after injection, and were analyzed by radioHPLC to determine the presence of metabolic derivatives of the radiotracer. […] Specifically, anterior planar whole-body dynamic images were acquired on an XRT gamma camera (General Electric) using a high-resolution medium energy parallel-hole collimator at one frame per minute for 60 min, with 512×512 matrix, and an energy window of 140±15 keV.

CC(=O)[S+]1CC(=O)[N]2CC(=O)[N]3CC(=O)[N](CC(=O)NCCCCCCCCCC[P+](c4ccccc4)(c4ccccc4)c4ccccc4)[99Tc]321=[O].[Br-] (stereo not shown) [^99mTc-Mito10-MAG3]
time radioactivity bound to Mito10-MAG3 remained persistent after labeling ([1]; physiological solution, radioHPLC): at least 48 hours | change in radiochemical purity after radiolabeling ([1]; radioHPLC at 0, 24 and 48 hr after radiolabeling): no significant change in radiochemical purity | Radioactivity Uptake, Bone ([2]; 1 min after injection, rats): 0.12 ± 0.05 % ID/g | Radioactivity Uptake, Bone ([2]; 3 min after injection, rats): 0.05 ± 0.01 % ID/g | Radioactivity Uptake, Bone ([2]; 5 min after injection, rats): 0.02 ± 0.24 % ID/g | Radioactivity Uptake, Bone ([2]; 10 min after injection, rats): 0.04 ± 0.03 % ID/g | Radioactivity Uptake, Bone ([2]; 30 min after injection, rats): 0.01 ± 0.01 % ID/g | Radioactivity Uptake, Bone ([2]; 60 min after injection, rats): 0.00 ± 0.00 % ID/g | Radioactivity Uptake, Brain ([2]; 1 min after injection, rats): 0.04 ± 0.03 % ID/g | Radioactivity Uptake, Brain ([2]; 3 min after injection, rats): 0.02 ± 0.01 % ID/g | Radioactivity Uptake, Brain ([2]; 5 min after injection, rats): 0.04 ± 0.03 % ID/g | Radioactivity Uptake, Brain ([2]; 10 min after injection, rats): 0.01 ± 0.00 % ID/g | Radioactivity Uptake, Brain ([2]; 30 min after injection, rats): 0.01 ± 0.01 % ID/g | Radioactivity Uptake, Brain ([2]; 60 min after injection, rats): 0.00 ± 0.00 % ID/g | Radioactivity Uptake, Colon ([2]; 1 min after injection, rats): 0.09 ± 0.04 % ID/g | Radioactivity Uptake, Colon ([2]; 3 min after injection, rats): 0.08 ± 0.03 % ID/g | Radioactivity Uptake, Colon ([2]; 5 min after injection, rats): 0.02 ± 0.01 % ID/g | Radioactivity Uptake, Colon ([2]; 10 min after injection, rats): 0.03 ± 0.01 % ID/g | Radioactivity Uptake, Colon ([2]; 30 min after injection, rats): 0.04 ± 0.03 % ID/g | Radioactivity Uptake, Colon ([2]; 60 min after injection, rats): 0.01 ± 0.00 % ID/g | Radioactivity Uptake, Fat ([2]; 1 min after injection, rats): 0.04 ± 0.02 % ID/g | Radioactivity Uptake, Fat ([2]; 3 min after injection, rats): 0.06 ± 0.01 % ID/g | Radioactivity Uptake, Fat ([2]; 5 min after injection, rats): 0.07 ± 0.05 % ID/g | Radioactivity Uptake, Fat ([2]; 10 min after injection, rats): 0.07 ± 0.03 % ID/g | Radioactivity Uptake, Fat ([2]; 30 min after injection, rats): 0.01 ± 0.00 % ID/g | Radioactivity Uptake, Fat ([2]; 60 min after injection, rats): 0.00 ± 0.00 % ID/g | Radioactivity Uptake, Heart ([2]; 1 min after injection, rats): 0.20 ± 0.08 % ID/g | Radioactivity Uptake, Heart ([2]; 3 min after injection, rats): 0.27±0.04 % ID/g | Radioactivity Uptake, Heart ([2]; 5 min after injection, rats): 0.18 ± 0.07 % ID/g | Radioactivity Uptake, Heart ([2]; 10 min after injection, rats): 0.06±0.01 % ID/g | Radioactivity Uptake, Heart ([2]; 30 min after injection, rats): 0.02±0.02 % ID/g | Radioactivity Uptake, Heart ([2]; 60 min after injection, rats): 0.01 ± 0.00 % ID/g | Radioactivity Uptake, Kidneys ([2]; 1 min after injection, rats): 2.30 ± 0.55 % ID/g | Radioactivity Uptake, Kidneys ([2]; 3 min after injection, rats): 3.69 ± 0.92 % ID/g | Radioactivity Uptake, Kidneys ([2]; 5 min after injection, rats): 3.06 ± 1.41 % ID/g | Radioactivity Uptake, Kidneys ([2]; 10 min after injection, rats): 1.79 ± 0.39 % ID/g | Radioactivity Uptake, Kidneys ([2]; 30 min after injection, rats): 1.40 ± 0.96 % ID/g | Radioactivity Uptake, Kidneys ([2]; 60 min after injection, rats): 0.75 ± 0.59 % ID/g | Radioactivity Uptake, Liver ([2]; 1 min after injection, rats): 3.23±1.10 % ID/g | Radioactivity Uptake, Liver ([2]; 3 min after injection, rats): 2.41 ± 1.12 % ID/g | Radioactivity Uptake, Liver ([2]; 5 min after injection, rats): 1.50 ± 0.84 % ID/g | Radioactivity Uptake, Liver ([2]; 10 min after injection, rats): 0.89 ± 0.30 % ID/g | Radioactivity Uptake, Liver ([2]; 30 min after injection, rats): 0.32±0.02 % ID/g | Radioactivity Uptake, Liver ([2]; 60 min after injection, rats): 0.21 ± 0.07 % ID/g | Radioactivity Uptake, Lung ([2]; 1 min after injection, rats): 0.82 ± 1.05 % ID/g | Radioactivity Uptake, Lung ([2]; 3 min after injection, rats): 0.31 ± 0.14 % ID/g | Radioactivity Uptake, Lung ([2]; 5 min after injection, rats): 0.48 ± 0.43 % ID/g | Radioactivity Uptake, Lung ([2]; 10 min after injection, rats): 0.23 ± 0.24 % ID/g | Radioactivity Uptake, Lung ([2]; 30 min after injection, rats): 0.05 ± 0.01 % ID/g | Radioactivity Uptake, Lung ([2]; 60 min after injection, rats): 0.03 ± 0.01 % ID/g | Radioactivity Uptake, Muscle ([2]; 1 min after injection, rats): 0.05 ± 0.02 % ID/g | Radioactivity Uptake, Muscle ([2]; 3 min after injection, rats): 0.03 ± 0.01 % ID/g | Radioactivity Uptake, Muscle ([2]; 5 min after injection, rats): 0.06 ± 0.01 % ID/g | Radioactivity Uptake, Muscle ([2]; 10 min after injection, rats): 0.06 ± 0.01 % ID/g | Radioactivity Uptake, Muscle ([2]; 30 min after injection, rats): 0.02 ± 0.01 % ID/g | Radioactivity Uptake, Muscle ([2]; 60 min after injection, rats): 0.01 ± 0.00 % ID/g | Radioactivity Uptake, Pancreas ([2]; 1 min after injection, rats): 0.32 ± 0.22 % ID/g | Radioactivity Uptake, Pancreas ([2]; 3 min after injection, rats): 0.27 ± 0.12 % ID/g | Radioactivity Uptake, Pancreas ([2]; 5 min after injection, rats): 0.20 ± 0.17 % ID/g | Radioactivity Uptake, Pancreas ([2]; 10 min after injection, rats): 0.12 ± 0.04 % ID/g | Radioactivity Uptake, Pancreas ([2]; 30 min after injection, rats): 0.01 ± 0.00 % ID/g | Radioactivity Uptake, Pancreas ([2]; 60 min after injection, rats): 0.02 ± 0.01 % ID/g | Radioactivity Uptake, Skin ([2]; 1 min after injection, rats): 0.07 ± 0.03 % ID/g | Radioactivity Uptake, Skin ([2]; 3 min after injection, rats): 0.10 ± 0.04 % ID/g | Radioactivity Uptake, Skin ([2]; 5 min after injection, rats): 0.12 ± 0.08 % ID/g | Radioactivity Uptake, Skin ([2]; 10 min after injection, rats): 0.05 ± 0.04 % ID/g | Radioactivity Uptake, Skin ([2]; 30 min after injection, rats): 0.04 ± 0.03 % ID/g | Radioactivity Uptake, Skin ([2]; 60 min after injection, rats): 0.02 ± 0.01 % ID/g | Radioactivity Uptake, Small Intestine ([2]; 1 min after injection, rats): 0.18 ± 0.04 % ID/g | Radioactivity Uptake, Small Intestine ([2]; 3 min after injection, rats): 0.67 ± 0.30 % ID/g | Radioactivity Uptake, Small Intestine ([2]; 5 min after injection, rats): 0.48 ± 0.14 % ID/g | Radioactivity Uptake, Small Intestine ([2]; 10 min after injection, rats): 0.50 ± 0.19 % ID/g | Radioactivity Uptake, Small Intestine ([2]; 30 min after injection, rats): 0.52 ± 0.20 % ID/g | Radioactivity Uptake, Small Intestine ([2]; 60 min after injection, rats): 0.36 ± 0.41 % ID/g | Radioactivity Uptake, Spleen ([2]; 1 min after injection, rats): 0.27 ± 0.12 % ID/g | Radioactivity Uptake, Spleen ([2]; 3 min after injection, rats): 0.25 ± 0.17 % ID/g | Radioactivity Uptake, Spleen ([2]; 5 min after injection, rats): 0.20 ± 0.08 % ID/g | Radioactivity Uptake, Spleen ([2]; 10 min after injection, rats): 0.09 ± 0.04 % ID/g | Radioactivity Uptake, Spleen ([2]; 30 min after injection, rats): 0.02 ± 0.02 % ID/g | Radioactivity Uptake, Spleen ([2]; 60 min after injection, rats): 0.02 ± 0.01 % ID/g | Radioactivity Uptake, Stomach ([2]; 1 min after injection, rats): 0.26 ± 0.04 % ID/g | Radioactivity Uptake, Stomach ([2]; 3 min after injection, rats): 0.32 ± 0.12 % ID/g | Radioactivity Uptake, Stomach ([2]; 5 min after injection, rats): 0.25 ± 0.26 % ID/g | Radioactivity Uptake, Stomach ([2]; 10 min after injection, rats): 0.30 ± 0.24 % ID/g | Radioactivity Uptake, Stomach ([2]; 30 min after injection, rats): 0.57 ± 0.41 % ID/g | Radioactivity Uptake, Stomach ([2]; 60 min after injection, rats): 0.04 ± 0.05 % ID/g | Radioactivity Uptake, Thymus ([2]; 1 min after injection, rats): 006 ± 0.02 % ID/g | Radioactivity Uptake, Thymus ([2]; 3 min after injection, rats): 0.12 ± 0.04 % ID/g | Radioactivity Uptake, Thymus ([2]; 5 min after injection, rats): 0.07 ± 0.01 % ID/g | Radioactivity Uptake, Thymus ([2]; 10 min after injection, rats): 0.04 ± 0.03 % ID/g | Radioactivity Uptake, Thymus ([2]; 30 min after injection, rats): 0.01 ± 0.00 % ID/g | Radioactivity Uptake, Thymus ([2]; 60 min after injection, rats): 0.01 ± 0.00 % ID/g | Radioactivity Uptake, Thyroid ([2]; 1 min after injection, rats): 0.30 ± 0.13 % ID/g | Radioactivity Uptake, Thyroid ([2]; 3 min after injection, rats): 0.33 ± 0.07 % ID/g | Radioactivity Uptake, Thyroid ([2]; 5 min after injection, rats): 0.27 ± 0.11 % ID/g | Radioactivity Uptake, Thyroid ([2]; 10 min after injection, rats): 0.11 ± 0.04 % ID/g | Radioactivity Uptake, Thyroid ([2]; 30 min after injection, rats): 0.02 ± 0.02 % ID/g | Radioactivity Uptake, Thyroid ([2]; 60 min after injection, rats): 0.01 ± 0.00 % ID/g | Radioactivity Uptake, Urine ([2]; 1 min after injection, rats): 0.05 ± 0.05 % ID/g | Radioactivity Uptake, Urine ([2]; 3 min after injection, rats): 0.76 ± 0.56 % ID/g | Radioactivity Uptake, Urine ([2]; 5 min after injection, rats): 0.68 ± 0.03 % ID/g | Radioactivity Uptake, Urine ([2]; 10 min after injection, rats): 2.35 ± 2.63 % ID/g | Radioactivity Uptake, Urine ([2]; 30 min after injection, rats): 8.83 ± 8.50 % ID/g | Radioactivity Uptake, Urine ([2]; 60 min after injection, rats): 10.85 ± 12.48 % ID/g | time for hepatic signal to decline to sufficiently low level ([2]; liver, after injection): ≤ 30 min | blood half-life ([2]; rats, intravenous injection, estimated): less than 2 min
